Source: article PMC11123956, “Nobiletin Stimulates Adrenal Hormones and Modulates the Circadian Clock in Mice” (Nutrients, 2024)

What was measured:
[1] = Blood glucose after i.p. injection; type: in vivo, mice; conditions: 100 mg/kg, after 4 h fasting, 0-90 min
Experimental: (§1) Male C57BL/6J mice (7 weeks old) were purchased from Charles River Japan (Kanagawa, Japan) and used for the serum hormone assay and RT-PCR. Male ICR mice were purchased from Tokyo Laboratory Animals Science Co., Ltd. (Tokyo, Japan), and female PERIOD2::LUCIFERASE (PER2::LUC) knock-in mice (ICR background) bred at Waseda University were used for blood glucose measurements and in vivo imaging assays, respectively. The mice were all housed under conditions of controlled temperature (23 °C ± 3 °C), humidity (50% ± 20%), and lighting (lights on from 07:00 to 19:00 at Taisho Pharmaceutical Co., Ltd. or from 08:00 to 20:00 at Waseda University). In the 24 h cycle, Zeitgeber time 0 (ZT0) was designated as the time when the lights were turned on, and ZT12 was designated as the time when the lights were turned off. […]
(§2) Serum corticosterone, adrenaline, and adreno-corticotropic hormone (ACTH) levels, and corticotropin releasing factor (CRF) in the hypothalamus, were measured using enzyme-linked immunosorbent assay (ELISA). […] Blood glucose levels were measured using a Glucose PILOT kit (Aventir Biotech, LLC, Carlsbad, CA, USA). The range of blood glucose that could be precisely measured with the kit was 20–600 mg/dL. […]

serum corticosterone = experiment: Serum corticosterone ELISA after i.p. injection; type: in vivo, mice; conditions: 100 mg/kg i.p. at ZT3, 1 h after administration
Experimental: as §1, §2

PDE7A = target: T1, PDE7A (Homo sapiens, UniProt Q13946); experiment: PDE enzyme  assay, PDE7A; type: biochemical
T1 construct: purchased Eurofins Panlabs Discovery Services Taiwan, Ltd. (contract assay); host or cells: insect Sf9 cells
T1 sequence (Q13946 whole entry): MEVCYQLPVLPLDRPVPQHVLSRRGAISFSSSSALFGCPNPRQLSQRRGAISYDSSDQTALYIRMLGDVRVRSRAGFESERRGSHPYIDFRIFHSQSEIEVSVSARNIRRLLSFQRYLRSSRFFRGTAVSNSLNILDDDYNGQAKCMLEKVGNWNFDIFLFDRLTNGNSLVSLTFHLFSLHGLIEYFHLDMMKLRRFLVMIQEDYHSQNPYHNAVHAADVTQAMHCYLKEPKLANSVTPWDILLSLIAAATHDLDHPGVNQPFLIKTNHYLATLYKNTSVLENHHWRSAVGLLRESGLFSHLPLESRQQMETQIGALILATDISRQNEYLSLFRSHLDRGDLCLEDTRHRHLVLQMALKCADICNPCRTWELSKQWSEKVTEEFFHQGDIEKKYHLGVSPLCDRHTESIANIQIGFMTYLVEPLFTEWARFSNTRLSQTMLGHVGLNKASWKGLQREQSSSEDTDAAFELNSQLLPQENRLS
Experimental: (§3) Enzyme assays for various subtypes of PDE (Table 1 and Figure 4) were conducted by Eurofins Panlabs Discovery Services Taiwan, Ltd. (New Taipei City, Taiwan). In the assays, five or six concentrations of nobiletin over five or six orders of magnitude were examined in experiments conducted in duplicate to determine the IC50 (concentration of nobiletin exerting half-maximal inhibition of control-specific activity). IC50 values were determined by nonlinear least squares regression analysis using MathIQTM (ID Business Solutions Ltd., Woking, UK). FAM-cAMP, FAM-cGMP (0.1 μM), and 100 μM [^3H]cGMP + cGMP were used for the substrate in the human recombinant insect Sf9 cells or Bovine retinal rod outer segments depending on the PDE subtype. The spectrofluorometric quantitation of fluorescein-AMP-IMAP, fluorescein-GMP-IMAP, or [^3H] guanosine was used depending on the PDE subtype. A known […] of each PDE was used as the positive control.

PDE2A = target: T2, PDE2A (Homo sapiens, UniProt O00408); experiment: PDE enzyme  assay, PDE2A; type: biochemical
T2 construct: purchased Eurofins Panlabs Discovery Services Taiwan, Ltd. (contract assay); host or cells: insect Sf9 cells
T2 sequence (O00408 whole entry): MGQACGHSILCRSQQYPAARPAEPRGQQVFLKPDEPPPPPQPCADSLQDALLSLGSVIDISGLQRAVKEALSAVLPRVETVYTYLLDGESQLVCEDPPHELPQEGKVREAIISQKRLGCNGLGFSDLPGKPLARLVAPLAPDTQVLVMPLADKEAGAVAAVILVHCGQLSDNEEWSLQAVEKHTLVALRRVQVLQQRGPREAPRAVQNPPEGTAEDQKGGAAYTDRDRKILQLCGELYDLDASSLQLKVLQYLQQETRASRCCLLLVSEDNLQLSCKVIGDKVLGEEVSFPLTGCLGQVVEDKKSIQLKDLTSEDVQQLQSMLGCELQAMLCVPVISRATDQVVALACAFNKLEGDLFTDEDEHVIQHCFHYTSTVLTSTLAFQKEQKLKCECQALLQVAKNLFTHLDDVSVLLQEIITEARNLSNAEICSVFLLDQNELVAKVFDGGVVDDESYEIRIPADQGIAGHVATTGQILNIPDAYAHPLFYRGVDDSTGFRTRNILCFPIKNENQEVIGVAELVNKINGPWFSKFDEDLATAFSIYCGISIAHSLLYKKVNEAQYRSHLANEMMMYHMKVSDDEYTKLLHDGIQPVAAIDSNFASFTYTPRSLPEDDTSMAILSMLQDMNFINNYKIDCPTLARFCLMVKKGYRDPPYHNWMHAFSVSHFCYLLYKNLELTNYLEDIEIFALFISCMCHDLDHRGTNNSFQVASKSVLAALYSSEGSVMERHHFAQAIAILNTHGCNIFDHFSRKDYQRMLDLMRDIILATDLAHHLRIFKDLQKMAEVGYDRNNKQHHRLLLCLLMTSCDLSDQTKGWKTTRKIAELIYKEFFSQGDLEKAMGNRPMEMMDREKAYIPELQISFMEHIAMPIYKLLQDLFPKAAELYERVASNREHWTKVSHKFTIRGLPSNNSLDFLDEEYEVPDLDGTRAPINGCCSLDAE
Experimental: as §3

SMILES: COc1ccc(-c2cc(=O)c3c(OC)c(OC)c(OC)c(OC)c3o2)cc1OC [nobiletin]
- blood glucose levels [1]: increased
- serum corticosterone levels (serum corticosterone): increase
- IC50 (PDE7A): 11.9 µM
- IC50 (PDE2A): 9.91 µM
